In patent US20160367515A1, “Improved delivery of poorly water soluble drugs with aphafetoprotein stabilized with metal ions” (Oy Safemed Ltd., priority 2013, published 2016):

Columns and labels:
rat glioma C6 = assay: MTS cell viability assay, rat glioma C6 cells; assay type: cell-based; settings: C6, 48 h, compositions of paclitaxel with rhAFP or Zn-rhAFP
Description: (§1) Tumor cell lines: human mammary carcinoma MCF-7, human hepatoma HepG2, and rat glioma C6—were originated from the American Type Culture Collection (ATCC). All cell lines were maintained in the complete DMEM or RPMI-1640 media supplemented with L-glutamine and 10% fetal calf serum (FCS) in humidified 5% CO2 atmosphere. For a passage, adherent cells were incubated in the EDTA/0.25% trypsin solution, then washed and plated out for experiments. Prior to addition of reagents, cells were washed with the fresh media with 2% FCS, plated onto 96-well polystyrene plates (Costar, USA) at a density of 3×10^3 cell/well in 180 μL of complete medium with 2% FCS and incubated for 2 h. […] Cell proliferation was assessed by [^3H]-thymidine (^3H-TdR) incorporation assay. […] Cells were harvested and the ^3H-TdR incorporation was measured by using the liquid scintillation counter LKB 1209 Rackbeta (LKB, Sweden). Results were expressed as mean counts per minute (cpm)±standard error of the mean of triplicate cultures or as a percentage of ^3H-TdR incorporation in the experimental cell cultures relatively to the untreated control, as described (Semenkova et al., Tumour Biol. 1997; 18: 261-74).
(§2) Cell viability was assessed by the Promega CellTiter 96 AQueous Non-Radioactive Cell Proliferation MTS assay (Promega, USA) according to manufacturer's instructions. […]

[1] = tested on: human hepatoma HepG2 cells; assay: MTS cell viability assay, hepatoma HepG2 cells; assay type: cell-based; settings: HepG2, 48 h
Description: as §1, §2

[2] = tested on: normal CBA mice splenocytes; assay: Unspecific toxicity against normal splenocytes, trypan blue staining; settings: 48 h, standalone
Description: Zn-rhAFP was prepared in a molecular ratio Zn:rhAFP=4:1. Viable cells were visualized by trypan blue staining. The data are expressed as percentage of viable cells in experimental cell cultures relative to untreated control. Mean of three independent experiments is shown.
Viable cells were visualized by trypan blue staining.

NF-κB p65 = assay: Immunofluorescence of activated NF-κB p65 nuclear translocation in MCF-7 cells; assay type: cell-based, human; settings: MCF-7, 2 h treatment
Description: The cells were incubated with paclitaxel (10 μM) with addition of Zn-rhAFP (3.0 μM) and/or curcumin (3.0 μM) for 2 h and then assessed for localization of p65 by immunocytochemistry. Activated […] (p65) was detected by treatment of the cells with phospho […] p65 rabbit polyclonal antibody (Cell signaling technologies, USA) followed by secondary goat anti-rabbit Ab-Alexa594 red (Molecular Probes, USA). Cells were visualized at magnification ×400 by fluorescent microscope Axioplan; Zeiss (Germany) equipped with corresponding color filter kits.
The relative amount of p65 in the cytosol and nucleus of the cells was assessed by ImageJ software and was taken as 100% in the control (cytosol+nucleus). Total amount of activated p65 in control untreated cells was taken as 100%. The experimental data are represented as percentage of control±SD from three independent calculations in various observation fields.
MCF-7 cells were seeded on the microscopic plates Lab-Tek™ Chamber Slides (Thermo Fisher Scientific-Nunc, Germany) and cultivated at 37° C. at 5% CO2 atmosphere for 48 h to allow cell adaptation to reach 80% confluence. To test effects of chemotherapeutic preparations on the activation and translocation of NF-κB, cells were treated for 2 h with Ptx (10 nM), curcumin (30 μM); Zn-rhAFP (1.4 μM), or their combination Zn-rhAFP/Ptx/Cur, after which they were fixed with 100% ice-cold acetone. Control cells were incubated without additions and their NF-κB content was taken as 100%. Activated NF-κB was detected by treatment of the cells with phospho NF-κB p65 rabbit polyclonal antibody (Cell signaling technologies, USA) followed by the secondary goat anti-rabbit antibodies Ab-Alexa594 (Molecular Probes, USA). Nuclei were visualized by staining with DAPI (Molecular probes, USA). Cells were visualized at magnification ×400 by fluorescent microscope Axioplan (Zeiss, Germany) equipped with corresponding color filter kits. Distribution throughout the cell of the activated p65 was assessed by the ImageJ software and was taken as 100% in the control samples (cytosol+nucleus).

## CC(=O)O[C@H]1C(=O)[C@@]2(C)[C@H]([C@H](OC(=O)c3ccccc3)[C@]3(O)C[C@H](OC(=O)[C@H](O)[C@@H](NC(=O)c4ccccc4)c4ccccc4)C(C)=C1C3(C)C)[C@]1(OC(C)=O)CO[C@@H]1C[C@@H]2O [Ptx, paclitaxel]
Rat glioma C6
  IC50: 2500 nM
[1]
  sensitivity of HepG2 cells (chemoresistance): complete resistance
[2]
  cytotoxic effect against normal splenocytes: strong dose-dependent growth suppression
NF-κB p65
  effect on activated p65 (RelA) in the cell nucleus: significant enhance of activated p65 localized in the nuclear region
